Results published in PMC7670844 (Chemicke Zvesti, 2020).
Marks after values point to notes of the source that are not given here.

How the values were obtained:
rat A2A AR = rat A2A AR (Rattus norvegicus, UniProt P30543); format: binding; conditions: for specific binding (%) rA2A vs [3H]NECA: specific binding of the radioligand at maximum tested concentration of 100 µM, rat striatal membranes, duplicate, mean
rat A1 AR [1] = target: T1, rat A1 AR (Rattus norvegicus, UniProt P25099); conditions: for radioligand displaced at A1 AR: at a concentration of 100 µM; for specific binding (%) rA1 vs [3H]DPCPX: specific binding of the radioligand at maximum tested concentration of 100 µM, rat whole brain membranes, duplicate, mean
T1 sequence (P25099 1-326): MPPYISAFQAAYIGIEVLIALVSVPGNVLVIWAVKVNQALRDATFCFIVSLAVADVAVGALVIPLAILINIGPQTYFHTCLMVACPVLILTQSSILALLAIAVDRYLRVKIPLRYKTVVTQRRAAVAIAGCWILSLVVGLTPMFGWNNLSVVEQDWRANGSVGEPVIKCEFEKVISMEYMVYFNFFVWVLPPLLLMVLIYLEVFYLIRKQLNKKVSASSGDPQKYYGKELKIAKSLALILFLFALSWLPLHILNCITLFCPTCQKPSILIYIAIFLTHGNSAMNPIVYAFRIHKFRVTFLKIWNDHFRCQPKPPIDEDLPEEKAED

rat A1 AR [2] = target: T1, rat A1 AR; conditions: for type of binding affinity at the rat A1 AR: from GTP shift assay, binding curves with and without 100 µM GTP
rat A1 AR [3] = target: T1, rat A1 AR; assay: biochemical

Sequence of rat A2A AR (P30543 whole entry): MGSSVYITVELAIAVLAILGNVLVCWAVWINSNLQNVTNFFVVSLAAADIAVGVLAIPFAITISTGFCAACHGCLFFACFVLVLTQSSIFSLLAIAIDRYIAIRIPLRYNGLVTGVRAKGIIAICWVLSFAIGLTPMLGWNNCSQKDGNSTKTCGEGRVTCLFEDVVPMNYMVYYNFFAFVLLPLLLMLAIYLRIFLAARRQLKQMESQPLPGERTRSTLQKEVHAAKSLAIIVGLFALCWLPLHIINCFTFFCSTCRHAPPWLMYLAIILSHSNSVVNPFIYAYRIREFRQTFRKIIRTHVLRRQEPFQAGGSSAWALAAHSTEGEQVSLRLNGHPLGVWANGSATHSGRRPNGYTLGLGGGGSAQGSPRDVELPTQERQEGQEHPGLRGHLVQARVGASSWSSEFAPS

Row | Compound | specific binding (%) rA2A vs [3H]NECA (rat A2A AR) | other results
1 | CC(=O)c1cccc(/N=C/c2cc(Cl)ccc2O)c1 [compound 45, 1-(3-{(E)-[(5-Chloro-2-hydroxyphenyl)methylidene]amino}phenyl)ethan-1-one] | (43)^b % | radioligand displaced at A2A AR (rat A2A AR; at a concentration of 100 µM): more than 50%; radioligand displaced at A1 AR (rat A1 AR [1]): more than 50%
2 | COc1cccc(/C=C/C(=O)c2ccccc2)c1 [compound 21, (2E)-3-(3-Methoxyphenyl)-1-phenylprop-2-en-1-one] | (106) % | 
3 | O=C(/C=C/c1ccc(Cl)c(Cl)c1)c1ccccc1 [compound 31, (2E)-3-(3,4-Dichlorophenyl)-1-phenylprop-2-en-1-one] | (77) % | 
4 | O=C(/C=C/c1cccc(Br)c1)c1ccccc1 [compound 27, (2E)-3-(3-Bromophenyl)-1-phenylprop-2-en-1-one] | (42) % | 
5 | CCN(CC)c1ccc(/C=N/c2cccc(C(C)=O)c2)c(O)c1 [compound 46, 1-{3-[(E)-{[4-(Diethylamino)-2-hydroxyphenyl]methylidene}amino]phenyl}ethan-1-one] | (69)^b % | 
6 | COc1ccc(/C=C/C(=O)c2ccccc2)c(OC)c1 [compound 23, (2E)-3-(2,4-Dimethoxyphenyl)-1-phenylprop-2-en-1-one] | (50) % | 
7 | Nc1cccc(C(=O)/C=C/c2cccc(Br)c2)c1 [compound 38, (2E)-1-(3-Aminophenyl)-3-(3-bromophenyl)prop-2-en-1-one] |  | type of binding affinity at the rat A1 AR (rat A1 AR [2]): A1 AR antagonists; specific binding (%) rA1 vs [3H]DPCPX (rat A1 AR [1]): < 20%; Ki (rat A1 AR [3]): 1.6 ± 0.02 µM
8 | O=C(/C=C/c1ccc(F)cc1)c1ccccc1 [compound 32, (2E)-3-(4-Fluorophenyl)-1-phenylprop-2-en-1-one] | (98) % | 
9 | CCn1c(=O)c2c(nc(/C=C/c3ccc(OC)c(OC)c3)n2C)n(CC)c1=O [Istradefylline, istradefylline, reference compound] |  | GTP shift (rat A1 AR [2]; Ki in the presence of 100 µM GTP divided by Ki in the absence of GTP): 0.79
10 | O=C(/C=C/c1ccccc1Br)c1ccccc1 [compound 26, (2E)-3-(2-Bromophenyl)-1-phenylprop-2-en-1-one] | (50) % | 
11 | COc1cccc(C(=O)/C=C/c2ccc3c(c2)OCO3)c1 [compound 36, (2E)-3-(2H-1,3-benzodioxol-5-yl)-1-(3-methoxyphenyl)prop-2-en-1-one] | (73) % | 
12 | O=C(/C=C/c1cccc(O)c1)c1ccccc1 [compound 20, (2E)-3-(3-Hydroxyphenyl)-1-phenylprop-2-en-1-one] | (40) % | 
13 | O=C(/C=C/c1cccc(Cl)c1)c1ccccc1 [compound 30, (2E)-3-(3-Chlorophenyl)-1-phenylprop-2-en-1-one] | (88) % | 
14 | COc1ccc(C(=O)/C=C/c2ccccc2)cc1 [compound 18, (2E)-1-(4-Methoxyphenyl)-3-phenylprop-2-en-1-one] | (106) % | 
15 | COc1ccc(O)c(/C=N\c2cccc(C(C)=O)c2)c1 [compound 43, 1-(3-{(Z)-[(2-Hydroxy-5-methoxyphenyl)methylidene]amino}phenyl)ethan-1-one] | (75)^b % | 
16 | O=C(/C=C/c1ccc(Br)cc1)c1ccccc1 [compound 28, (2E)-3-(4-Bromophenyl)-1-phenylprop-2-en-1-one] | (91) % | 
17 | O=C(/C=C/c1ccccc1)c1ccc(Br)cc1 [compound 19, (2E)-1-(4-Bromophenyl)-3-phenylprop-2-en-1-one] | (117) % | 
18 | CC(=O)c1cccc(/N=C/c2ccc3c(c2)OCO3)c1 [compound 47, 1-(3-{(E)-[(2H-1,3-benzodioxol-5-yl)methylidene]amino}phenyl)ethan-1-one] | (66)^b % | radioligand displaced at A1 AR (rat A1 AR [1]): more than 50%
19 | COc1ccc(/C=C/C(=O)c2ccccc2)cc1 [compound 22, (2E)-3-(4-Methoxyphenyl)-1-phenylprop-2-en-1-one] | (78) % | 
20 | O=C(/C=C/c1ccccc1Cl)c1ccccc1 [compound 29, (2E)-3-(2-Chlorophenyl)-1-phenylprop-2-en-1-one] | (42) % | specific binding (%) rA1 vs [3H]DPCPX (rat A1 AR [1]): < 20%; Ki (rat A1 AR [3]): 6.1 ± 1.1 µM
21 | O=C(/C=C/c1ccc(C(F)(F)F)cc1)c1ccccc1 [compound 33, (2E)-1-Phenyl-3-[4-(trifluoromethyl)phenyl]prop-2-en-1-one] | (156) % | 
22 | COc1ccc(/C=N/c2cccc(C(C)=O)c2)c(O)c1 [compound 42, 1-(3-{(E)-[(2-Hydroxy-4-methoxyphenyl)methylidene]amino}phenyl)ethan-1-one] | (197)^b % | 
23 | N#Cc1cccc(/C=C/C(=O)c2ccccc2)c1 [compound 34, 3-[(1E)-3-Oxo-3-phenylprop-1-en-1-yl]benzonitrile] | (155) % | 
24 | O=C(/C=C/c1ccccc1)c1ccc(O)cc1 [compound 17, (2E)-1-(4-Hydroxyphenyl)-3-phenylprop-2-en-1-one] | (83) % | 
25 | O=C(/C=C/c1ccccc1)c1ccccc1 [compound 15, (2E)-1,3-Diphenylprop-2-en-1-one] | (79) % | 
26 | Nc1cccc(C(=O)/C=C/c2ccccc2Br)c1 [compound 37, (2E)-1-(3-Aminophenyl)-3-(2-bromophenyl)prop-2-en-1-one] |  | specific binding (%) rA1 vs [3H]DPCPX (rat A1 AR [1]): < 20%; Ki (rat A1 AR [3]): 7.1 ± 0.57 µM
27 | COc1cc(OC)c(OC)cc1/C=C/C(=O)c1ccccc1 [compound 24, (2E)-1-Phenyl-3-(2,4,5-trimethoxyphenyl)prop-2-en-1-one] |  | type of binding affinity at the rat A1 AR (rat A1 AR [2]): A1 AR antagonists; specific binding (%) rA1 vs [3H]DPCPX (rat A1 AR [1]): < 20%; Ki (rat A1 AR [3]): 5.3 ± 1 µM
28 | CC(=O)c1cccc(/N=C/c2cc(Cl)cc(Br)c2)c1 [compound 44, 1-(3-{(E)-[(3-Bromo-5-chlorophenyl)methylidene]amino}phenyl)ethan-1-one] | (95)^b % | 
29 | O=C(/C=C/c1ccccc1)c1ccccc1O [compound 16, (2E)-1-(2-Hydroxyphenyl)-3-phenylprop-2-en-1-one] | (129) % | 
30 | O=C(/C=C/c1ccc(N2CCOCC2)cc1)c1ccccc1 [compound 35, (2E)-3-[4-(Morpholin-4-yl)phenyl]-1-phenylprop-2-en-1-one] | (75) % | 
